Results taken from PubChem BioAssay (NCI).
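Step 1: Grow cells in 96-well plates. Step 2: Expose to compound for 48 hours at 5 concentrations. Step 3: Interpolate endpoints linearly; if unreached, use highest concentration. TGI marks complete inhibition of growth.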 Where a SMILES comes first, the peptide text is derived from it. The star is where a group is joined. Fmoc = O=C(OCC1c2ccccc2-c2ccccc21)*; Boc = CC(C)(C)OC(=O)*

What was measured:
Test in all cases: NCI-60 cell line screen, 48 h
UACC-62 melanoma = tested on: UACC-62 melanoma
OVCAR-4 ovarian = tested on: OVCAR-4 ovarian
EKVX NSCLC = tested on: EKVX NSCLC
SN12C renal = tested on: SN12C renal
NCI-H23 lung = tested on: NCI-H23 lung
HOP-62 NSCLC = tested on: HOP-62 NSCLC
M14 melanoma = tested on: M14 melanoma
HCT-116 colon = tested on: HCT-116 colon
RXF 393 renal = tested on: RXF 393 renal
HOP-92 NSCLC = tested on: HOP-92 NSCLC
OVCAR-3 ovarian = tested on: OVCAR-3 ovarian
CAKI-1 renal = tested on: CAKI-1 renal
SK-MEL-2 melanoma = tested on: SK-MEL-2 melanoma
MALME-3M melanoma = tested on: MALME-3M melanoma
NCI-H226 lung = tested on: NCI-H226 lung
HS 578T breast = tested on: HS 578T breast
LOX IMVI melanoma = tested on: LOX IMVI melanoma
BT-549 breast = tested on: BT-549 breast
MCF7 breast = tested on: MCF7 breast
DU-145 prostate = tested on: DU-145 prostate
CCRF-CEM leukemia = tested on: CCRF-CEM leukemia
SK-MEL-5 melanoma = tested on: SK-MEL-5 melanoma
MDA-N = tested on: MDA-N
TK-10 renal = tested on: TK-10 renal
HT29 colon = tested on: HT29 colon
SF-539 CNS = tested on: SF-539 CNS
MOLT-4 leukemia = tested on: MOLT-4 leukemia
SR leukemia = tested on: SR leukemia
HL-60(TB) leukemia = tested on: HL-60(TB) leukemia
A549 NSCLC = tested on: A549 NSCLC
HCC-2998 colon = tested on: HCC-2998 colon
SF-268 CNS = tested on: SF-268 CNS
UACC-257 melanoma = tested on: UACC-257 melanoma
NCI/ADR-RES ovarian = tested on: NCI/ADR-RES ovarian
MDA-MB-435 = tested on: MDA-MB-435
OVCAR-5 ovarian = tested on: OVCAR-5 ovarian
SF-295 CNS = tested on: SF-295 CNS
MDA-MB-231 breast = tested on: MDA-MB-231 breast
SK-OV-3 ovarian = tested on: SK-OV-3 ovarian
COLO 205 colon = tested on: COLO 205 colon
NCI-H522 lung = tested on: NCI-H522 lung
RPMI-8226 leukemia = tested on: RPMI-8226 leukemia
UO-31 renal = tested on: UO-31 renal
T-47D breast = tested on: T-47D breast
ACHN renal = tested on: ACHN renal
A498 renal = tested on: A498 renal
SNB-19 CNS = tested on: SNB-19 CNS
SNB-75 CNS = tested on: SNB-75 CNS
KM12 colon = tested on: KM12 colon
786-0 renal = tested on: 786-0 renal
HCT-15 colon = tested on: HCT-15 colon
K-562 leukemia = tested on: K-562 leukemia
SW-620 colon = tested on: SW-620 colon
IGROV1 ovarian = tested on: IGROV1 ovarian
OVCAR-8 ovarian = tested on: OVCAR-8 ovarian
U251 CNS = tested on: U251 CNS
SK-MEL-28 melanoma = tested on: SK-MEL-28 melanoma
NCI-H460 lung = tested on: NCI-H460 lung
PC-3 prostate = tested on: PC-3 prostate

Measured: TGI

CC1OC(n2cnc3c(N)nc(Cl)nc32)C(C)(O)C1O (configuration not stated)
15.2 µM: SNB-75 CNS
not listed: U251 CNS | SK-MEL-28 melanoma | NCI-H460 lung | PC-3 prostate
> 25 µM: all other assays above

CCO/N=C(/CC)c1ccc(Br)s1
not listed: RPMI-8226 leukemia
> 100 µM: all other assays above

CC(C)(C)OC(=O)NCCCCC(NC(=O)C(Cc1c[nH]c2ccccc12)NC(=O)OCC1c2ccccc2-c2ccccc21)C(=O)O (configuration not stated) (Fmoc-Trp-Lys(Boc)-OH; configuration not given here)
67 µM: HOP-92 NSCLC | RPMI-8226 leukemia
54.9 µM: SK-MEL-2 melanoma
34 µM: HL-60(TB) leukemia
59.3 µM: SR leukemia
48.2 µM: MOLT-4 leukemia
46.2 µM: LOX IMVI melanoma
67.9 µM: MDA-MB-231 breast
31.1 µM: U251 CNS
42.4 µM: UACC-62 melanoma
61 µM: CCRF-CEM leukemia
38.5 µM: K-562 leukemia
40.4 µM: OVCAR-3 ovarian
35.6 µM: SK-OV-3 ovarian
31.5 µM: CAKI-1 renal
96.2 µM: HS 578T breast
not listed: NCI-H522 lung | A498 renal
> 100 µM: all other assays above

CC(=O)c1cccc(NC(=O)/C(=N\NC(=S)NN)C2C(=O)Nc3ccccc3S2=O)c1 (configuration not stated)
not listed: OVCAR-4 ovarian | DU-145 prostate | HCC-2998 colon | COLO 205 colon | HCT-15 colon | NCI-H460 lung
> 100 µM: all other assays above

O=C(O)CCCN=C(C(=NCCCC(=O)O)c1ccccc1)c1ccccc1
not listed: HOP-92 NSCLC | CAKI-1 renal | MALME-3M melanoma | CCRF-CEM leukemia | SK-MEL-5 melanoma | HT29 colon | SF-539 CNS | HL-60(TB) leukemia | NCI-H522 lung
> 100 µM: all other assays above

Cc1ccc(C)c(C(=N)c2ccccc2Cc2ccccc2)c1
38.2 µM: MOLT-4 leukemia
47.2 µM: MDA-MB-435
46.4 µM: HOP-92 NSCLC
58.7 µM: K-562 leukemia
33.2 µM: NCI-H460 lung
34.9 µM: RXF 393 renal
64.2 µM: MDA-MB-231 breast
41.5 µM: HCT-116 colon
20.7 µM: HS 578T breast
30.4 µM: U251 CNS
69.4 µM: MDA-N
80.6 µM: T-47D breast
53.9 µM: A498 renal
41.7 µM: SR leukemia
30.5 µM: SK-MEL-5 melanoma
46.2 µM: SF-268 CNS
33.9 µM: NCI-H226 lung
56.8 µM: EKVX NSCLC
48.1 µM: DU-145 prostate
31.7 µM: LOX IMVI melanoma | HCC-2998 colon
32.2 µM: SN12C renal | 786-0 renal
85.8 µM: OVCAR-4 ovarian
79.1 µM: SK-OV-3 ovarian
43.6 µM: HL-60(TB) leukemia
61.5 µM: HOP-62 NSCLC
30 µM: NCI-H522 lung
35.4 µM: RPMI-8226 leukemia
27.2 µM: OVCAR-3 ovarian
83.7 µM: BT-549 breast
35.7 µM: ACHN renal
73.1 µM: UACC-257 melanoma
33.8 µM: SF-539 CNS
66.9 µM: COLO 205 colon
28 µM: MALME-3M melanoma
80.1 µM: SK-MEL-28 melanoma
32.4 µM: MCF7 breast
56.5 µM: KM12 colon
33.7 µM: HT29 colon
98.3 µM: OVCAR-5 ovarian
56 µM: SF-295 CNS
32 µM: SK-MEL-2 melanoma
33.4 µM: UACC-62 melanoma
not listed: CCRF-CEM leukemia | SNB-75 CNS
> 100 µM: all other assays above

NC1=CN(Cc2ccccc2)C2=N/C(=C\c3ccco3)C(=O)N12
not listed: SR leukemia | RPMI-8226 leukemia
> 100 µM: all other assays above
